# Data published in US9440938B2, “Sulfonamide derivative having PGD2 receptor antagonistic activity” (SHIONOGI & CO., LTD., priority 2005, dated 2016).
# Where two headings read alike, the source gives them in different places.
# Key:
# DP receptor [1] = target: T1, DP receptor (Homo sapiens, UniProt Q13258); experiment: cAMP assay with washed platelet (DP inhibitory activity in vitro); type: cell-based; conditions: washed human platelets, 100 nM PGD2, cAMP by HTRF
# T1 construct: endogenous in cells; host or cells: washed platelets from peripheral blood of a healthy volunteer
# T1 sequence (Q13258 1-359): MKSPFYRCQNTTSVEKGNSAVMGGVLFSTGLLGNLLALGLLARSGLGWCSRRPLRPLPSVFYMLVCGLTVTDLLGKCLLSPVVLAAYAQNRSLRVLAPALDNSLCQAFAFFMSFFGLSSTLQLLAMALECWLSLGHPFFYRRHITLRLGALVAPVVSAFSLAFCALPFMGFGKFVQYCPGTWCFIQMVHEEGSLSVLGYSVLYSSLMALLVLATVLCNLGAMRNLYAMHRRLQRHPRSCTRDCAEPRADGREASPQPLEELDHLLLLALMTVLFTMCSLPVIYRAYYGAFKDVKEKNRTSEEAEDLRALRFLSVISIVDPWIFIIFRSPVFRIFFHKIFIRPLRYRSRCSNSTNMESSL
# Description: 1) Preparation of Platelet and a Method of cAMP Assay
# 30 mL of peripheral blood was collected from a healthy volunteer using a syringe containing one ninth amount of 3.8% sodium citrate. After being centrifuged at 180 g for 10 minutes at room temperature, a supernatant was collected and used as Platelet Rich Plasma (PRP). The resulting PRP was washed with wash buffer and centrifuged three times (Washed Platelet: WP) and platelets were counted by a microcell counter. WP was added to a plate in amount of 1.5×10^8/assay and the plate was treated with 3-isobutyl-1-methylxanthin (IBMX; 0.5 mM) for 5 minutes. A reaction was initiated by adding 100 nM of PGD2 5 min after an addition of a test compound. The reaction was terminated with an addition of 1N hydrochloric acid after 2 minutes and the cells were destructed using 12% triton X-100. An amount of cAMP in the supernatant was assayed by Homogeneous Trangient Fluorescence (HTRF)
# OVA asthma model of rat = experiment: Test using OVA asthma model of rat (airway hyperresponsiveness, infiltration of inflammatory cells, mucus-secretion); type: in vivo, Brown Norway (BN) Rats; conditions: po, 72 h
# Description: Test Using OVA Asthma Model of Rat
# Brown Norway (BN) Rats were sensitized by i.p. administration of 0.1 mg/mL of ovalbumin (OVA) and 1 mg of aluminum hydroxide gel. A solution of 1% OVA was aerosolized by ultrasonic nebulizer (NE-U17) and the rats were subjected to inhalation exposure of the aerosol for 30 minutes in an exposing chamber 12, 19, 26 and 33 days after the sensitization. One hour before the 4th exposure of the antigen, compounds of the present invention were administered in a dose of 10 mg/kg p.o. once a day for three days consecutively. In a control group, 0.5% of methyl cellulose was administered in place of the compound of the present invention.
# Under pentobarbital anesthesia (80 mg/kg, i.p.), acetylcholine (3.9, 7.8, 15.6, 31.3, 62.5, 125, 250 and 500 μg/kg) was injected to jugular vein of the rats successively from a lower dose at intervals of 5 minutes three days after the fourth exposure to the antigen, and immediate contractile reaction of airways (an increase of insufflation pressure) was measured by a modified method of Konnzett & Ririssler. Inhibition rate of airway hyperresponsiveness against the control group was calculated based on area under the curve (AUC) obtained from concentration-response curve of acetylcholine.
# After the measurement of increased hyperresponsive airway was completed, bronchoalveoli of the rats were washed with 5 mL of saline three times. Total cell number in the washings was counted by a hemacytometer under light microscope, and inhibition rates of infiltration of inflammatory cells against the control group were calculated. Further, mucin in the airway lavage fluid was measured by ELISA method using jacalin, a mucin-binding lectin, and the inhibition rates of mucus-secretion against the control group were calculated.
# DP receptor [2] = target: T1, DP receptor; experiment: Receptor binding assay, [3H]-PGD2, platelet membrane; conditions: [3H]-PGD2, human platelet membrane
# Description: 2) Receptor Binding Assay
# A prepared WP was homogenated and a membrane fraction was collected with high-speed centrifugation. A compound of the present invention or a reference compound A (No. IC-73 in WO 2003/097598) was added to the plate and [^3H]-PGD2 was also added. A platelet membrane, a protein concentration is 2 mg/mL, was added and mixed in the plate, and placed on ice for 2 hours. The reaction solution was transferred to a low protein-adsorptive filter and washed with a wash solution eight times using a cell harvester. After the final washing, water was removed sufficiently, and scintillator was added. DP inhibitory activity was investigated by measuring [^3H] by using Micro Beta.
# [3] = read-out: IC50 (50% DP-inhibitory concentration in the cAMP assay)
# [4] = BN rats, 10 mg/kg p.o. once a day for three days, mucin in airway lavage fluid by ELISA against control group, read-out: inhibition rate (%) mucus-secretion
# [5] = BN rats, 10 mg/kg p.o. once a day for three days, total cell number in bronchoalveolar washings against control group, read-out: inhibition rate (%) infiltration of inflammatory cells
# [6] = read-out: inhibition rate (%) airway hyperresponsiveness
SMILES,IC50 (DP receptor [1]; [3]),inhibition in vivo at 10 mg/kg (OVA asthma model of rat; [4]),inhibition in vivo at 10 mg/kg (OVA asthma model of rat; [5]),inhibition in vivo at 10 mg/kg (OVA asthma model of rat; [6]),Ki (DP receptor [2]),IC50 (DP receptor [1])
CC(C)Oc1ccc(S(=O)(=O)N2CCN(c3ccc([N+](=O)[O-])c(OCC(=O)O)c3)CC2)cc1 [II-13],280 nM,47%,46%,99%,810 nM,–
CC(C)Oc1ccc(S(=O)(=O)N2CCN(c3cc(F)c(F)c(OCC(=O)O)c3)CC2)cc1 [II-16],250 nM,76%,67%,131%,870 nM,–
CC(C)Oc1ccc(S(=O)(=O)N2CCN(c3cc(Br)cc(OCC(=O)O)c3)CC2)cc1 [II-17],230 nM,49%,53%,89%,570 nM,–
CC(C)Oc1ccc(S(=O)(=O)N2CCN(c3cc(OCC(=O)O)cc(C(F)(F)F)c3)CC2)cc1 [II-19],1100 nM,59%,51%,54%,2000 nM,–
CC(C)Oc1ccc(S(=O)(=O)N2CCN(c3ccc(NC(=O)c4ccco4)c(OCC(=O)O)c3)CC2)cc1 [II-24],510 nM,89%,67%,77%,1700 nM,–
CC(C)Oc1ccc(S(=O)(=O)N2CCN(c3cc(Cl)cc(OCC(=O)O)c3)CC2)cc1 [II-26],430 nM,121%,37%,97%,630 nM,–
CC(C)Oc1ccc(S(=O)(=O)N2CCN(c3ccc(Cl)c(OCC(=O)O)c3)CC2)cn1 [II-27],1000 nM,118%,49%,49%,1400 nM,–
CC[C@@H](C)Oc1ccc(S(=O)(=O)N2CCN(c3ccc(Cl)c(OCC(=O)O)c3)CC2)cc1 [II-29],380 nM,110%,60%,89%,740 nM,–
CC(C)Oc1ccc(S(=O)(=O)N2CCN(c3ccc(Br)c(OCC(=O)O)c3)CC2)cc1 [II-33],300 nM,76%,57%,72%,1900 nM,–
CC(C)Sc1ccc(S(=O)(=O)N2CCN(c3ccc(Cl)c(OCC(=O)O)c3)CC2)cc1 [II-35],470 nM,84%,60%,88%,3100 nM,–
CC(C)Oc1ccc(S(=O)(=O)N2CCN(c3cc(OCC(=O)O)cc(-c4ccoc4)c3)CC2)cc1 [II-38],650 nM,71%,69%,39%,250 nM,–
CC(C)Oc1ccc(S(=O)(=O)N2CCN(c3ccc(Cl)c(OCC(=O)O)c3)CC2C)cc1 (centres unmarked) [II-43],740 nM,98%,33%,56%,2300 nM,–
CC(C)Oc1ccc(S(=O)(=O)N2CCN(c3ccc(-c4ccoc4)c(OCC(=O)O)c3)CC2)cc1 [II-54],–,106%,39%,119%,270 nM,420 nM
CC(C)Oc1ccc(S(=O)(=O)N2CCN(c3ccc(C#N)c(OCC(=O)O)c3)CC2)cc1 [II-80],200 nM,82%,57%,39%,230 nM,–
CC(C)Oc1ccc(S(=O)(=O)N2CCN(c3ccc(-c4cnco4)c(OCC(=O)O)c3)CC2)cc1 [II-84],–,56%,54%,82%,330 nM,180 nM
CC(C)Oc1ccc(S(=O)(=O)N2CCN(c3ccc(C(=O)NC4CC4)c(OCC(=O)O)c3)CC2)cc1 [II-89],2100 nM,–,–,–,20000 nM,–

SMILES,IC50 (DP receptor [1]; [3]),inhibition in vivo at 10 mg/kg (OVA asthma model of rat; [4]),inhibition in vivo at 10 mg/kg (OVA asthma model of rat; [5]),inhibition in vivo at 10 mg/kg (OVA asthma model of rat; [6]),Ki (DP receptor [2]),IC50 (DP receptor [1])
CC(C)Oc1ccc(S(=O)(=O)N2CCN(c3ccc(-c4nccs4)c(OCC(=O)O)c3)CC2)cc1 [II-92],360 nM,44%,46%,53%,580 nM,–
CC(C)Oc1ccc(S(=O)(=O)N2CCN(c3ccc(-c4ncco4)c(OCC(=O)O)c3)CC2)cn1 [II-94],2000 nM,–,–,–,1700 nM,–
CC(C)Oc1ccc(S(=O)(=O)N2CCN(c3ccc(-n4cccn4)c(OCC(=O)O)c3)CC2)cc1 [II-95],2400 nM,–,–,–,4700 nM,–
CC(C)Oc1ccc(S(=O)(=O)N2CCN(c3ccc(-c4cocn4)c(OCC(=O)O)c3)CC2)cc1 [II-96],290 nM,52%,46%,105%,330 nM,–
CC(C)Oc1ccc(S(=O)(=O)N2CCN(c3ccc(C(=O)NCc4cccs4)c(OCC(=O)O)c3)CC2)cc1 [II-99],590 nM,–,–,–,11000 nM,–
CC(C)Oc1ccc(S(=O)(=O)N2CCN(c3ccc(C(=O)NCc4ccccn4)c(OCC(=O)O)c3)CC2)cc1 [II-100],2400 nM,–,–,–,12800 nM,–
CC(C)Oc1ccc(S(=O)(=O)N2CCN(c3ccc(C(=O)Nc4nc5ccccc5[nH]4)c(OCC(=O)O)c3)CC2)cc1 [II-101],210 nM,–,–,–,22000 nM,–
CC(C)Oc1ccc(S(=O)(=O)N2CCN(c3ccc(C(=O)NCC4CC4)c(OCC(=O)O)c3)CC2)cc1 [II-105],1500 nM,–,–,–,16000 nM,–
CC(C)Oc1ccc(S(=O)(=O)N2CCN(c3ccc(C(=O)NCc4ccco4)c(OCC(=O)O)c3)CC2)cc1 [II-106],1600 nM,–,–,–,19000 nM,–
CC(C)Oc1ccc(S(=O)(=O)N2CCN(c3ccc(C(=O)Nc4nccs4)c(OCC(=O)O)c3)CC2)cc1 [II-108],130 nM,–,–,–,13000 nM,–
CC(C)Oc1ccc(S(=O)(=O)N2CCN(c3ccc(C(=O)Nc4nncs4)c(OCC(=O)O)c3)CC2)cc1 [II-110],360 nM,–,–,–,9800 nM,–
CC(C)Oc1ccc(S(=O)(=O)N2CCN(c3ccc(C(=O)Nc4ccn(C)n4)c(OCC(=O)O)c3)CC2)cc1 [II-111],700 nM,–,–,–,36000 nM,–
CC(C)Oc1ccc(S(=O)(=O)N2CCN(c3ccc(C(=O)Nc4cc(C5CC5)n[nH]4)c(OCC(=O)O)c3)CC2)cc1 [II-112],120 nM,–,–,–,9300 nM,–
CC(C)Oc1ccc(S(=O)(=O)N2CCN(c3ccc4ncn(CC(=O)O)c4c3)CC2)cc1 [II-134],2700 nM,–,–,–,8500 nM,–
CC(C)Oc1ccc(S(=O)(=O)N2CCN(c3ccc([N+](=O)[O-])c(NCC(=O)O)c3)CC2)cc1 [II-135],130 nM,–,–,–,490 nM,–
